pEC50: −log10 of the molar value.

What all share (format): cell-based
For experiment [1], the system named is PMN's (polymorphonuclear leukocytes). The experiment can be described thus: Neutrophil oxidative burst. Conditions: Leukocyte, 40 min; 40 min incubation at rt; normalised to 5×10^−7 M PEP0005; read-out: Neutrophil oxidative burst Rel EC50 range. Here is the method:
PMN's (polymorphonuclear leukocytes) are isolated and purified from fresh buffy coats by sequential sedimentation, density centrifugation and lysis of contaminating erythrocytes. In brief, buffy coats are incubated with 2% methocel for 30-45 min to differentially sediment red blood cells. The leukocyte-rich supernatant is transferred to lymphoprep tubes to remove mononuclear cells by density centrifugation (400×g, 30 min). The pellet is resuspended and any remaining erythrocytes lysed using 0.2% NaCl for 30 sec before restoring isotonicity by the addition of 1.2% NaCl. This step is repeated until the cell pellet appears relatively free of red blood cells. Cells are resuspended in DPBS (Dulbecco's Phosphate Buffered Saline) (w.o. Ca^2+, Mg^2+) and the concentration adjusted to 1.4×10^6 cells/ml in HBSS (Hanks Balanced Salt solution) (w Ca^2+, Mg^2+) containing 0.1% BSA (Bovine Serum Albumin) and 5 mM glucose just prior to assay initiation. Titrated reference and test compounds are pre-mixed with HE (Hydroethidine) (10 μM final assay concentration) before addition to 96-well plates containing 2.5×10^5 cells. Following 40 min incubation at rt, changes in the respiratory burst is estimated by measuring fluorescence at 579 nm (excitation: 485 nm) using an Envision plate reader.
Test compound titration curves are fitted to a four-parameter sigmoidal curve after normalizing the effect of the test compound to the effect of the positive control (5×10^−7 M PEP0005). Rel EC50 denotes the concentration of test compound producing an effect that is midway between the fitted top and bottom. Abs EC50 is the concentration of test compound that provokes a response corresponding to 50% of the maximal effect associated with the positive control (5×10^−7 M PEP0005).

Another experiment relates to HeLa cells. The experiment can be described thus: Necrosis assay. The following applies: Homo sapiens, 0.5 h, 30 min at 37° C., PrestoBlue, normalised to 4 10^−4 M PEP0005/ingenol mebutate, read-out: HeLa necrosis EC50 range. Here is the method: HeLa cells (ATCC CCL-002) were grown in minimal essential medium (Invitrogen catalog no. 42360) containing 10% fetal bovine serum, 100 IU/ml penicillin and 100 μg/ml streptomycin. 4,000-6,000 cells were seeded into 96-well black ViewPlates-plates, clear bottom, (Perkin Elmer) in 100 μl medium and incubated overnight. Compounds were dissolved and pre-diluted in DMSO in 96-well polypropylene plates (Greiner) in a concentration range of 15 μM to 600 μM. At the time of the experiment cell plates were placed on heating blocks at 37° C., medium was removed and 40 μl fresh, pre-warmed medium was added per well. Cells were incubated for 15 min before addition of compounds. In parallel, 3 μl of compounds were diluted with 197 μl growth medium on a Tecan freedom-EVO pipetting station using 250 μl/s pipetting speed, in order to ensure effective mixing of the highly concentrated compound solutions with the aqueous phase.
These pre-dilution plates were then equilibrated on heating blocks at 37° C. for 10 min. 80 μl pre-diluted compound were transferred manually to the corresponding wells containing HeLa cells yielding compound concentrations of 10 μM to 400 μM. Control conditions were 1% DMSO in growth medium (100% viability) and 400 μM ingenol mebutate in growth medium (0% viability). Plates were incubated on the heating blocks at 37° C. for 30 min. At the end of the incubation 10 μl PrestoBlue reagent (Invitrogen) were added to each well, plates were sealed with black seal, followed by incubation at 37° C. for 10 min with gentle shaking (150 rpm). Subsequently, plates were placed at room temperature for 20-30 min. Plates were read immediately after on an Envision Fluorescence reader (Perkin Elmer) with excitation at 535 nm and emission at 630 nm. Test compound titration curves were fitted to a four-parameter sigmoidal curve after normalizing the effect of the test compound to the effect of the positive control (4 10^−4 M PEP0005/ingenol mebutate). Abs EC50 denotes the concentration of test compound producing 50% effect.

For experiment [2], the system named is Primary human epidermal keratinocytes, HeKa. The experiment can be described thus: HeKa cytokine release (IL-8). Conditions: 6 h at 37° C., normalised to 1.5×10^−7 M PEP0005, read-out: HeKa cytokine release (IL-8) Rel EC50 range. Here is the method:
Primary human epidermal keratinocytes, HeKa, are seeded (10.000 cells/well) in 96-well plates the day before the assay. Test compounds are diluted in DMSO (dimethyl sulfoxide) and further diluted in assay medium and pipetted into wells of 96 well-plates containing HeKa cells. The plates are incubated for 6 h at 37° C. in humidified air with 5% CO2. Plates are centrifuged briefly to spin down cells at 4° C., the supernatant is removed and analysed by Meso Scale Discovery (MSD) 4-spot cytokine assay (Pro-inflammatory II Ultra Sensitive kit, MSD, MD, USA). The MSD assay employs a sandwich immunoassay format where capture antibodies are coated in a patterned array on the bottom of the wells of a 4-Spot-Multi-MSD plate. Standard samples are incubated in the MULTI-SPOT plates as well, and the cytokine (IL-8) binds to its corresponding capture antibody spot. The cytokine level is quantitated on a SECTOR™ Imager using a cytokine-specific Detection Antibody labelled with MSD SULFO-TAG™ reagent.
Test compound titration curves are fitted to a four-parameter sigmoidal curve after normalizing the effect of the test compound to the effect of the positive control (1.5×10^−7 M PEP0005). Rel EC50 denotes the concentration of test compound producing an effect that is midway between the fitted top and bottom.

As to `CC1=C[C@]23C(=O)[C@@H](C=C(CO)[C@@H](O)[C@]2(O)[C@H]1Oc1ncnc(Cl)c1C)[C@H]1[C@@H](C[C@H]3C)C1(C)C` [Compound 101, 3-O-(6-Chloro-5-methyl-pyrimidin-4-yl)-ingenol], the pEC50 in experiment [1] is 7.00 to 7.70; in the experiment on HeLa cells, greater than 3.82; in experiment [2], greater than 7.70.
Consider `CC1=C[C@]23C(=O)[C@@H](C=C(CO)[C@@H](O)[C@]2(O)[C@H]1Oc1noc2ccccc12)[C@H]1[C@@H](C[C@H]3C)C1(C)C` [Compound 102, 3-O-(1,2-Benzoxazol-3-yl)-ingenol], for which the pEC50 was greater than 7.70 in experiment [1], 3.46 to 3.82 in the experiment with HeLa cells and greater than 7.70 in experiment [2].
Turning to `CC1=C[C@]23C(=O)[C@@H](C=C(CO)[C@@H](O)[C@]2(O)[C@H]1Oc1ccc(C(F)(F)F)cn1)[C@H]1[C@@H](C[C@H]3C)C1(C)C` [Compound 103, 3-O-(5-(Trifluoromethyl)-2-pyridyl)-ingenol], the pEC50 was 3.46 to 3.82 in the experiment with HeLa cells and 7.00 to 7.70 in experiment [2].
Turning to `C=CCc1c(Cl)ncnc1O[C@H]1C(C)=C[C@]23C(=O)[C@@H](C=C(CO)[C@@H](O)[C@]12O)[C@H]1[C@@H](C[C@H]3C)C1(C)C` [Compound 104, 3-O-(5-Allyl-6-chloro-pyrimidin-4-yl)-ingenol], the negative logarithm of the EC50 (pEC50) is 7.00 to 7.70 in experiment [1], greater than 3.82 with HeLa cells and greater than 7.70 in experiment [2].
For the compound `CC1=C[C@]23C(=O)[C@@H](C=C(CO)[C@@H](O)[C@]2(O)[C@H]1Oc1ncccc1C=O)[C@H]1[C@@H](C[C@H]3C)C1(C)C` [Compound 105, 3-O-(3-Formyl-2-pyridyl)-ingenol], the pEC50 was no more than 7.00 in experiment [1], no more than 3.46 with HeLa cells and no more than 7.00 in experiment [2].
Regarding `CC1=C[C@]23C(=O)[C@@H](C=C(CO)[C@@H](O)[C@]2(O)[C@H]1Oc1ccccn1)[C@H]1[C@@H](C[C@H]3C)C1(C)C` [Compound 106, 3-O-(2-Pyridyl)-ingenol], the negative-log EC50 (pEC50) in experiment [1] is no more than 7.00; in the experiment on HeLa cells, no more than 3.46; in experiment [2], 7.00 to 7.70.
For `CC1=C[C@]23C(=O)[C@@H](C=C(CO)[C@@H](O)[C@]2(O)[C@H]1Oc1nn(C)c2ccccc12)[C@H]1[C@@H](C[C@H]3C)C1(C)C` [Compound 107, 3-O-(1-Methylindazol-3-yl)-ingenol], the pEC50 in experiment [1] was no more than 7.00; with HeLa cells, 3.46 to 3.82; in experiment [2], no more than 7.00.
For `CC1=C[C@]23C(=O)[C@@H](C=C(CO)[C@@H](O)[C@]2(O)[C@H]1Oc1nccn1C)[C@H]1[C@@H](C[C@H]3C)C1(C)C` [Compound 108, 3-O-(1-Methylimidazol-2-yl)-ingenol], the pEC50 in experiment [1] is no more than 7.00; with HeLa cells it was no more than 3.46; in experiment [2], no more than 7.00.
Turning to `C=CCn1ccnc1O[C@H]1C(C)=C[C@]23C(=O)[C@@H](C=C(CO)[C@@H](O)[C@]12O)[C@H]1[C@@H](C[C@H]3C)C1(C)C` [Compound 109, 3-O-(1-Allylimidazol-2-yl)-ingenol], the values for the pEC50 (in experiment [1]; with HeLa cells) were 7.00 to 7.70 and no more than 3.46, respectively.
`CC1=C[C@]23C(=O)[C@@H](C=C(CO)[C@@H](O)[C@]2(O)[C@H]1Oc1ncc(C(F)(F)F)cn1)[C@H]1[C@@H](C[C@H]3C)C1(C)C` [Compound 110, 3-O-(5-(Trifluoromethyl)-pyrimidin-2-yl)-ingenol]: the results for the pEC50 (in experiment [1]; in the experiment on HeLa cells; in experiment [2]) were no more than 7.00, no more than 3.46 and no more than 7.00, respectively.
Regarding `CC1=C[C@]23C(=O)[C@@H](C=C(CO)[C@@H](O)[C@]2(O)[C@H]1Oc1cc(Br)ccn1)[C@H]1[C@@H](C[C@H]3C)C1(C)C` [Compound 111, 3-O-(4-Bromo-2-pyridyl)-ingenol], the values for the pEC50 (in experiment [1]; with HeLa cells; in experiment [2]) were 7.00 to 7.70, 3.46 to 3.82 and 7.00 to 7.70, respectively.
As to `CC1=C[C@]23C(=O)[C@@H](C=C(CO)[C@@H](O)[C@]2(O)[C@H]1Oc1ncccc1F)[C@H]1[C@@H](C[C@H]3C)C1(C)C` [Compound 112, 3-O-(3-Fluoro-2-pyridyl)-ingenol], the pEC50 in experiment [1] was 7.00 to 7.70; in the experiment with HeLa cells it was no more than 3.46; in experiment [2], no more than 7.00.
Turning to `CC1=C[C@]23C(=O)[C@@H](C=C(CO)[C@@H](O)[C@]2(O)[C@H]1Oc1cc(C(F)(F)F)ccn1)[C@H]1[C@@H](C[C@H]3C)C1(C)C` [Compound 113, 3-O-(4-(Trifluoromethyl)-2-pyridyl)-ingenol], the results for the pEC50 (in experiment [1]; in the experiment with HeLa cells; in experiment [2]) were 7.00 to 7.70, 3.46 to 3.82 and 7.00 to 7.70, respectively.
As to `CC1=C[C@]23C(=O)[C@@H](C=C(CO)[C@@H](O)[C@]2(O)[C@H]1Oc1nccc(C(F)(F)F)n1)[C@H]1[C@@H](C[C@H]3C)C1(C)C` [Compound 114, 3-O-(4-(Trifluoromethyl)-pyrimidin-2-yl)-ingenol], the pEC50 in experiment [1] is no more than 7.00; in the experiment with HeLa cells, no more than 3.46; in experiment [2] it was no more than 7.00.
Turning to `CC1=C[C@]23C(=O)[C@@H](C=C(CO)[C@@H](O)[C@]2(O)[C@H]1Oc1ncccc1Cl)[C@H]1[C@@H](C[C@H]3C)C1(C)C` [Compound 115, 3-O-(3-Chloro-2-pyridyl)-ingenol], the pEC50 in experiment [1] was 7.00 to 7.70; with HeLa cells it was 3.46 to 3.82; in experiment [2], 7.00 to 7.70.
Take `CC1=C[C@]23C(=O)[C@@H](C=C(CO)[C@@H](O)[C@]2(O)[C@H]1Oc1ncccc1C#N)[C@H]1[C@@H](C[C@H]3C)C1(C)C` [Compound 116, 3-O-(3-Cyano-2-pyridyl)-ingenol]: the pEC50 in experiment [1] was 7.00 to 7.70; in the experiment on HeLa cells, no more than 3.46; in experiment [2], no more than 7.00.
Turning to `CC1=C[C@]23C(=O)[C@@H](C=C(CO)[C@@H](O)[C@]2(O)[C@H]1Oc1nccn1CC(F)F)[C@H]1[C@@H](C[C@H]3C)C1(C)C` [Compound 121, 3-O-(1-(2,2-Difluoroethyl)imidazol-2-yl)-ingenol], the negative-log EC50 (pEC50) is 7.00 to 7.70 in experiment [1] and no more than 7.00 in experiment [2].
Regarding `CC1=C[C@]23C(=O)[C@@H](C=C(CO)[C@@H](O)[C@]2(O)[C@H]1Oc1nccn1CCF)[C@H]1[C@@H](C[C@H]3C)C1(C)C` [Compound 122, 3-O-(1-(2-Fluoroethyl)imidazol-2-yl)-ingenol], the pEC50 in experiment [1] and in experiment [2] was no more than 7.00 each time.
On to `CC1=C[C@]23C(=O)[C@@H](C=C(CO)[C@@H](O)[C@]2(O)[C@H]1Oc1nccc2occc12)[C@H]1[C@@H](C[C@H]3C)C1(C)C` [Compound 126, 3-O-(Furo[3,2-c]pyridine-4-yl)-ingenol], for which the pEC50 was 7.00 to 7.70 in experiment [1] and 3.46 to 3.82 with HeLa cells.

The values above are taken from patent publication US9422309B2, “3-O-heteroaryl-ingenol” (LEO LABORATORIES LIMITED, priority 2012, dated 2016).
